Measured values as given in ChEMBL document CHEMBL3603838, “Guanidinium compounds with sub-micromolar activities against Mycobacterium tuberculosis. Synthesis, characterization and biological evaluations” (Bioorg Med Chem, 2015).
pIC50: −log10 of the molar value. In brackets after ≈: the same amount, converted by molar mass.

Assays:
[1] = tested on: Mycobacterium tuberculosis; experiment: Antimycobacterial activity against isoniazid-resistant Mycobacterium tuberculosis MYC5165 after 6 days by MTT assay; format: functional, organism-based; settings: MYC5165, 144 h
[2] = Selectivity index, ratio of CC50 for human MRC5 cells to MIC for isoniazid-resistant Mycobacterium tuberculosis MYC5165; format: toxicity, cell-based; settings: read-out: Selectivity Index
[3] = tested on: Mycobacterium tuberculosis; experiment: Ratio of isoniazid MIC to compound MIC for isoniazid-resistant Mycobacterium tuberculosis MYC5165; format: functional
[4] = tested on: Mycobacterium tuberculosis; experiment: Ratio of CX1 MIC to compound MIC for isoniazid-resistant Mycobacterium tuberculosis MYC5165; format: functional
[5] = tested on: Mycobacterium tuberculosis; experiment: Ratio of streptomycin MIC to compound MIC for isoniazid-resistant Mycobacterium tuberculosis MYC5165; format: functional

| SMILES | MIC [1] | selectivity ratio [2] | pIC50 ([1]; read-out: IC50) | Ratio [3] | Ratio [4] | Ratio [5] | pIC50 [1] |
| --- | --- | --- | --- | --- | --- | --- | --- |
| N=C(N)NCCc1cc2c(O)c(c1)Cc1cc(CCNC(=N)N)cc(c1O)Cc1cc(CCNC(=N)N)cc(c1O)Cc1cc(CCNC(=N)N)cc(c1O)C2 | 0.8 µM (≈ 0.612 µg/mL) | > 256 |  |  |  |  |  |
| N=C(N)NCCc1ccc(OCc2ccccc2COc2ccc(CCNC(=N)N)cc2)cc1.O=C(O)C(F)(F)F | 3.1 µM | 45 | 6.05 | 4 |  |  |  |
| N=C(N)NCCc1ccc(OCc2cccc(COc3ccc(CCNC(=N)N)cc3)c2)cc1.O=C(O)C(F)(F)F | 0.8 µM | 62 | 6.52 | 16 | 16 |  |  |
| N=C(N)NCCc1ccc(OCc2ccc(COc3ccc(CCNC(=N)N)cc3)cc2)cc1.O=C(O)C(F)(F)F | 0.8 µM | 38 | 6.70 | 60 | 16 |  |  |
| N=C(N)NCCc1ccc(OCc2cc(COc3ccc(CCNC(=N)N)cc3)cc(COc3ccc(CCNC(=N)N)cc3)c2)cc1.O=C(O)C(F)(F)F | 0.2 µM | 198 |  | >125 |  | 4 |  |
| N=C(N)NCCc1ccc(OCc2cc(COc3ccc(CCNC(=N)N)cc3)c(COc3ccc(CCNC(=N)N)cc3)cc2COc2ccc(CCNC(=N)N)cc2)cc1.O=C(O)C(F)(F)F | 0.1 µM | 377 | 7.52 | >125 |  |  |  |
| O=C(O)c1cn(C2CC2)c2cc(N3CCNCC3)c(F)cc2c1=O [CIPROFLOXACIN] | 2.5 µM (≈ 0.828 µg/mL) |  |  |  |  |  | 5.74 |
| NNC(=O)c1ccncc1 [ISONIAZID] | 12.5 µM (≈ 1.71 µg/mL) | > 6 | 6.19 |  |  |  |  |
| CN[C@@H]1[C@H](O[C@H]2[C@H](O[C@H]3[C@H](O)[C@@H](O)[C@H](N=C(N)N)[C@@H](O)[C@@H]3N=C(N)N)O[C@@H](C)[C@]2(O)C=O)O[C@@H](CO)[C@H](O)[C@H]1O [STREPTOMYCIN] | 2.7 µM (≈ 1.57 µg/mL) |  |  |  |  |  |  |
